System: VEGFA
Experiment: VEGFA ELISA assay (IC50)
Format: cell-based
Conditions: Homo sapiens, 786-0; 786-O cells, 24 h, VEGFA in culture supernatant by ELISA
Protocol: 786-O cells in the logarithmic growth phase were inoculated into a 96-well plate at a cell concentration of 65,000 cells per ml of culture liquid, 180 μL per well. The compounds were diluted to the corresponding concentrations, and 20 μL of compound solutions of various concentrations were added to the corresponding cell wells, so that the final concentrations of the compounds were 1.5 nM, 4.6 nM, 13.7 nM, 41.2 nM, 123.5 nM, 370.4 nM, 1111.1 nM, 3333.3 nM, and 10000 nM, respectively. After culturing for 24 h, the cell culture supernatant was collected and the VEGFA concentration was determined using an ELISA kit (purchased from Abeam). Finally, the reaction was terminated and the absorbance value of each well was measured at a wavelength of 450 nm using an ELISA reader. The IC50 values were calculated by GraphPadPrism. CellTiter-Glo reagent was used to measure cell viability.

| SMILES | IC50 [nM] |
| --- | --- |
| O=S(=O)(c1cn(-c2ccc(F)c(C(F)F)c2)c2c1[C@H](O)C(F)(F)CC2)C(F)F [Example 6, (S)-1-(3-(difluoromethyl)-4-fluorophenyl)-3-((difluoromethyl)sulfonyl)-5,5-difluoro-4,5,6,7-tetrahydro-1H-indol-4-ol] | 11 |
| N#Cc1cc(-n2cc(S(=O)(=O)CF)c3c2CCC(F)(F)[C@H]3O)ccc1F [Example 11, (S)-5-(5,5-difluoro-3-((fluoromethyl)sulfonyl)-4-hydroxyl-4,5,6,7-tetrahydro-1H-indol-1-yl)-2-fluorobenzonitrile] | 27 |
| N#Cc1ccc(-n2cc(S(=O)(=O)CF)c3c2CCC(F)(F)[C@H]3O)cc1C(F)(F)F [Example 36, (S)-4-(5,5-difluoro-3-((fluoromethyl)sulfonyl)-4-hydroxyl-4,5,6,7-tetrahydro-1H-indol-1-yl)-2-(trifluoromethyl) benzonitrile] | 108 |
| N#Cc1ccc(-n2cc(S(=O)(=O)C(F)F)c3c2CCC(F)(F)[C@H]3O)cc1C#N [Example 39, (S)-4-(3-((difluoromethyl)sulfonyl)-5,5-difluoro-4-hydroxyl-4,5,6,7-tetrahydro-1H-indol-1-yl)phthalonitrile] | 140 |
| N#Cc1ccc(-n2cc(S(=O)(=O)C(F)(F)F)c3c2CCC(F)(F)[C@H]3O)cc1C#N [Example 42, (S)-4-(5,5-difluoro-4-hydroxyl-3-((trifluoromethyl)sulfonyl)-4,5,6,7-tetrahydro-1H-indol-1-yl)phthalonitrile] | 74 |
| N#CC(F)S(=O)(=O)c1cn(-c2ccc(F)c(C(F)F)c2)c2c1[C@H](O)C(F)(F)CC2 (stereo partly drawn) [Example 47, 2-(((S)-1-(3-(difluoromethyl)-4-fluorophenyl)-5,5-difluoro-4-hydroxyl-4,5,6,7-tetrahydro-1H-indol-3-yl)sulfonyl)-2-fluoroacetonitrile] | 8 |
| CCOC(=O)C(F)(F)c1cn(-c2ccc(F)c(C(F)F)c2)c2c1[C@H](O)C(F)(F)CC2 [Example 48, ethyl (S)-2-(1-(3-(difluoromethyl)-4-fluorophenyl)-5,5-difluoro-4-hydroxyl-4,5,6,7-tetrahydro-1H-indol-3-yl)-2,2-difluoroacetate] | 1620 |
| N#CC(F)(F)c1cn(-c2ccc(F)c(C(F)F)c2)c2c1[C@H](O)C(F)(F)CC2 [Example 49, (S)-2-(1-(3-(difluoromethyl)-4-fluorophenyl)-5,5-difluoro-4-hydroxyl-4,5,6,7-tetrahydro-1H-indol-3-yl)-2,2-difluoroacetonitrile] | 99 |
| O[C@H]1c2c(-c3nccs3)cn(-c3ccc(F)c(C(F)F)c3)c2CCC1(F)F [Example 51, (S)-1-(3-(difluoromethyl)-4-fluorophenyl)-5,5-difluoro-3-(thiazol-2-yl)-4,5,6,7-tetrahydro-1H-indol-4-ol] | 1250 |

Results, then the compound that gave them:

| IC50 [nM] | SMILES |
| --- | --- |
| 639 | N#CC1(S(=O)(=O)c2cn(-c3ccc(F)c(C(F)F)c3)c3c2[C@H](O)C(F)(F)CC3)CC1 [Example 58, (S)-1-((1-(3-(difluoromethyl)-4-fluorophenyl)-5,5-difluoro-4-hydroxyl-4,5,6,7-tetrahydro-1H-indol-3-yl)sulfonyl)cyclopropane-1-nitrile] |
| 50 | O=S(=O)(c1cn(-c2ccc(F)c(C(F)F)c2)c2c1[C@H](O)[C@H](F)CC2)C(F)F [Example 63, (4S,5R)-1-(3-(difluoromethyl)-4-fluorophenyl)-3-((difluoromethyl)sulfonyl)-5-fluoro-4,5,6,7-tetrahydro-1H-indol-4-ol] |
| 33 | O=S(=O)(c1cn(-c2ccc(F)c(C(F)F)c2)c2c1[C@H](O)[C@@H](F)CC2)C(F)F [Example 64, (4S,5S)-1-(3-(difluoromethyl)-4-fluorophenyl)-3-((difluoromethyl)sulfonyl)-5-fluoro-4,5,6,7-tetrahydro-1H-indol-4-ol] |
| 30 | N#Cc1ccc(-n2cc(S(=O)(=O)C(F)(F)F)c3c2CCC[C@H]3O)cc1C(F)F [Example 65, (R)-2-(difluoromethyl)-4-(4-hydroxyl-3-((trifluoromethyl)sulfonyl)-4,5,6,7-tetrahydro-1H-indol-1-yl)benzonitrile] |
| 15 | N#Cc1cc(-n2c(F)c(-c3cccs3)c3c2CCC(F)(F)C3O)ccc1F (stereo not shown) [Example 106, 2-fluoro-5-(2,5,5-trifluoro-4-hydroxyl-3-(thien-2-yl)-4,5,6,7-tetrahydro-1H-indol-1-yl)benzonitrile] |

Same assay, conditions: Homo sapiens, 786-0; 786-O cells, 24 h, VEGFA in culture supernatant by ELISA; class symbols

| SMILES | IC50 [nM] |
| --- | --- |
| N#Cc1ccc(-n2cc(S(=O)(=O)C(F)F)c3c2CCC(F)(F)[C@H]3O)cc1C(F)(F)F [Example 34, (S)-4-(3-((difluoromethyl)sulfonyl)-5,5-difluoro-4-hydroxyl-4,5,6,7-tetrahydro-1H-indol-1-yl)-2-(trifluoromethyl)benzonitrile] | ≤ 500 |
| O=S(=O)(CF)c1cn(-c2ccc(F)c(Cl)c2)c2c1[C@H](O)C(F)(F)CC2 [Example 37, (S)-1-(3-chloro-4-fluorophenyl)-5,5-difluoro-3-((fluoromethyl)sulfonyl)-4,5,6,7-tetrahydro-1H-indol-4-ol] | ≤ 500 |
| N#Cc1cc(-n2cc(S(=O)(=O)C(F)(F)F)c3c2CCC(F)(F)[C@H]3O)ccc1Cl [Example 40, (S)-2-chloro-5-(5,5-difluoro-4-hydroxyl-3-((trifluoromethyl)sulfonyl)-4,5,6,7-tetrahydro-1H-indol-1-yl)benzonitrile] | ≤ 500 |
| N#Cc1ccc(-n2cc(C(F)(F)C(F)(F)F)c3c2CCC(F)(F)C3O)cc1C(F)F (stereo not shown) [Example 41, 4-(5,5-difluoro-4-hydroxyl-3-(perfluoroethyl)-4,5,6,7-tetrahydro-1H-indol-1-yl)-2-(difluoromethyl)benzonitrile] | ≤ 500 |
| N#Cc1ccc(-n2cc(S(=O)(=O)C(F)F)c3c2CCC(F)(F)[C@H]3O)cc1C(F)F [Example 43, (S)-2-(difluoromethyl)-4-(3-((difluoromethyl)sulfonyl)-5,5-difluoro-4-hydroxyl-4,5,6,7-tetrahydro-1H-indol-1-yl)benzonitrile] | ≤ 500 |
| N#Cc1ccc(-n2cc(S(=O)(=O)CF)c3c2CCC(F)(F)[C@H]3O)cc1C(F)F [Example 44, (S)-4-(5,5-difluoro-3-((fluoromethyl)sulfonyl)-4-hydroxyl-4,5,6,7-tetrahydro-1H-indol-1-yl)-2-(difluoromethyl) benzonitrile] | ≤ 500 |
| N#Cc1ccc(-n2cc(S(=O)(=O)CF)c3c2CCC(F)(F)[C@H]3O)cc1C#N [Example 45, (S)-4-(5,5-difluoro-3-((fluoromethyl)sulfonyl)-4-hydroxyl-4,5,6,7-tetrahydro-1H-indol-1-yl)phthalonitrile] | ≤ 500 |
| N#Cc1ccc(-n2cc(C(F)(F)C(F)(F)F)c3c2CCC(F)(F)[C@H]3O)cc1C#N [Example 46, (S)-4-(5,5-difluoro-4-hydroxyl-3-(perfluoroethyl)-4,5,6,7-tetrahydro-1H-indol-1-yl)phthalonitrile] | ≤ 500 |

The remaining lines, values ahead:

| IC50 [nM] | SMILES |
| --- | --- |
| ≤ 500 | CC(C#N)S(=O)(=O)c1cn(-c2ccc(F)c(C(F)F)c2)c2c1[C@H](O)C(F)(F)CC2 (stereo partly drawn) [Example 57, 2-(((S)-1-(3-(difluoromethyl)-4-fluorophenyl)-5,5-difluoro-4-hydroxyl-4,5,6,7-tetrahydro-1H-indol-3-yl)sulfonyl) propanenitrile] |
| ≤ 500 | O=S(=O)(CF)c1cn(-c2ccc(F)c(C(F)F)c2)c2c1[C@@H](O)C(F)(F)CC2 [Example 61, (R)-1-(3-(difluoromethyl)-4-fluorophenyl)-5,5-difluoro-3-((fluoromethyl)sulfonyl)-4,5,6,7-tetrahydro-1H-indol-4-ol] |
| ≤ 500 | NC(=O)c1cn(-c2ccc(F)c(C(F)F)c2)c2c1[C@H](O)C(F)(F)CC2 [Example 62, (S)-1-(3-(difluoromethyl)-4-fluorophenyl)-5,5-difluoro-4-hydroxyl-4,5,6,7-tetrahydro-1H-indole-3-carboxamide] |
| 500 to 1500 | O[C@H]1c2c(C(F)(F)F)cn(-c3ccc(F)cc3F)c2CCC1(F)F [Example 72, (S)-1-(2,4-difluorophenyl)-5,5-difluoro-3-(trifluoromethyl)-4,5,6,7-tetrahydro-1H-indol-4-ol] |

System: 786-O-HIF2α-Luc cells
Experiment: Luciferase assay (HIF2α reporter gene cells)
Format: cell-based
Conditions: 18-20 h, luminescence
Protocol: The luciferase LUC gene was stably transfected into 786-0 cells (purchased from ATCC) using Lipofectamine 3000 transfection reagent (purchased from Invitrogen) to construct HIF2α reporter gene cells (786-O-HIF2α-Luc cells). The experiment was performed when 786-O-HIF2α-Luc cells were in the logarithmic growth phase, the culture medium (RPMI MEDIUM 1640, purchased from Invitrogen) was discarded, and the cells were rinsed three times with PBS; trypsin (TrypLE, purchased from Invitrogen) was added to digest the cells, and the digestion was terminated with culture medium, 10% fetal bovine serum, 1% penicillin, and streptomycin. The cells were collected by centrifugation, and washed twice with PBS to remove phenol red in the culture medium. The cells were resuspended to an appropriate concentration. The cell density and viability were measured, to ensure that the cells with a viability of at least 90% were used in the assay.
The compounds at a gradient concentration were transferred into 384 wells using Echo550 (non-contact acoustic pipetting system, purchased from Labcyte), 25 nL/well. The cells were seeded into 384-well plates, with 4500 cells/well and 25 μL of culture medium, and the final concentrations of the compounds were 10000 nM, 3333 nM, 1111 nM, 370 nM, 123 nM, 41.1 nM, 13.7 nM, 4.6 nM, 1.5 nM, and 0.5 nM, respectively. The cells were cultured for 18-20 h under conditions of 37° C. and 5% CO2. Steady-Glo™ luciferase assay system (purchased from Promega) was added to a 384-well plate, 25 μL/well. Luminescence values were detected using Envision. The inhibition rate % was calculated based on the RLU (Record Luminescence) signal value of each well, and then the IC50 values of the corresponding compounds were calculated by fitting using Graphpad 8.0.
The IC50 data of the exemplary examples are provided in Table 2, where A stands for IC50≤0.1 μM; B stands for 0.1 μM<IC50≤0.5 μM; and C stands for IC50>0.5 μM.

| IC50 [nM] | SMILES |
| --- | --- |
| 38 | O=S(=O)(c1cn(-c2ccc(F)c(C(F)F)c2)c2c1[C@H](O)C(F)(F)CC2)C(F)F [Example 6, (S)-1-(3-(difluoromethyl)-4-fluorophenyl)-3-((difluoromethyl)sulfonyl)-5,5-difluoro-4,5,6,7-tetrahydro-1H-indol-4-ol] |

Same assay, conditions: 18-20 h, luminescence, class symbols

| IC50 [nM] | SMILES |
| --- | --- |
| 100 to 500 | N#Cc1cc(-n2cc(S(=O)(=O)CF)c3c2CCC(F)(F)[C@H]3O)ccc1F [Example 11, (S)-5-(5,5-difluoro-3-((fluoromethyl)sulfonyl)-4-hydroxyl-4,5,6,7-tetrahydro-1H-indol-1-yl)-2-fluorobenzonitrile] |

Source: patent US20250042853A1, “BICYCLIC COMPOUND AND APPLICATION THEREOF” (BETTA PHARMACEUTICALS CO., LTD, priority 2021, published 2025)
